Results from US9771369B2, “Compounds and methods for kinase modulation, and indications therefor” (Plexxikon Inc., priority 2014, dated 2017).

Biological target: c-kit mutant D816V (Homo sapiens (Human), UniProt P10721, D816V/DEL694-753)
Assay: c-Kit mutant D816V biochemical assay (AlphaScreen kinase activity)
Summary of the method: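 Recombinant His-tagged c-Kit D816V kinase domain (residues 551-934, insert 694-753 deleted, E. coli-expressed) phosphorylating 30 nM biotin-(E4Y)10 with 10 μM ATP, HEPES pH 7.2, Mg/Mn, 5% DMSO; 30 min, room temperature. Phosphorylation detected by AlphaScreen (streptavidin donor/PY30 acceptor beads); IC50 from 8-point 1:3 series.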

c-kit mutant D816V, sequence (P10721 other isoform, or with tags, fused parts or gaps D816V/del 694-753): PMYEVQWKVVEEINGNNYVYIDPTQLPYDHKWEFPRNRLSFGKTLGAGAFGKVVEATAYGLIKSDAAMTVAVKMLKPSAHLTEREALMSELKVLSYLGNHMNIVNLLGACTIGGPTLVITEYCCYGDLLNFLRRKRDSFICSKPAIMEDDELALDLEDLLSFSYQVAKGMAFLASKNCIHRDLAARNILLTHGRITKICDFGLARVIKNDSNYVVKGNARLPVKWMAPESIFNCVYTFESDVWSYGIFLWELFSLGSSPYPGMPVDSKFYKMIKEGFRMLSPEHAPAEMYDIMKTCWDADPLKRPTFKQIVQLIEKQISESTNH

SMILES | IC50
Cc1nc(C2CCN(c3ncnc4[nH]c(-c5ccc(F)cc5)cc34)CC2)[nH]c1-c1ccc(F)cc1 [P-3006, 6-(4-fluorophenyl)-4-[4-[5-(4-fluorophenyl)-4-methyl-1H-imidazol-2-yl]-1-piperidyl]-7H-pyrrolo[2,3-d]pyrimidine] | 0.0001 to 1 µM
Cc1ccc(-c2[nH]c(C3CCN(c4ncnc5[nH]c(-c6ccc(C#N)cc6)cc45)CC3)nc2C)cc1 [P-3089, 4-[4-[4-[4-methyl-5-(p-tolyl)-1H-imidazol-2-yl]-1-piperidyl]-7H-pyrrolo[2,3-d]pyrimidin-6-yl]benzonitrile] | 0.0001 to 1 µM
Cc1ccc(-c2[nH]c(C3CCN(c4ncnc5[nH]c(-c6ccc(C#N)cc6)cc45)CC3)nc2C)s1 [P-3090, 4-[4-[4-[4-methyl-5-(5-methyl-2-thienyl)-1H-imidazol-2-yl]-1-piperidyl]-7H-pyrrolo[2,3-d]pyrimidin-6-yl]benzonitrile] | 0.0001 to 1 µM
COc1cc(-c2cc3c(N4CCC(c5nc(C)c(-c6ccc(OC(C)C)cc6)[nH]5)CC4)ncnc3[nH]2)ccn1 [P-3091, 4-[4-[5-(4-isopropoxyphenyl)-4-methyl-1H-imidazol-2-yl]-1-piperidyl]-6-(2-methoxy-4-pyridyl)-7H-pyrrolo[2,3-d]pyrimidine] | 0.0001 to 1 µM
Cc1nc(C2CCN(c3ncnc4[nH]c(-c5ccc(F)cc5)cc34)CC2)[nH]c1-c1ccc(OC(C)C)cc1 [P-3092, 6-(4-fluorophenyl)-4-[4-[5-(4-isopropoxyphenyl)-4-methyl-1H-imidazol-2-yl]-1-piperidyl]-7H-pyrrolo[2,3-d]pyrimidine] | 0.0001 to 1 µM
Cc1nc(C2CCN(c3ncnc4[nH]c(-c5ccc(C#N)cc5)cc34)CC2)[nH]c1-c1ccc(OC(C)C)cc1 [P-3093, 4-[4-[4-[5-(4-isopropoxyphenyl)-4-methyl-1H-imidazol-2-yl]-1-piperidyl]-7H-pyrrolo[2,3-d]pyrimidin-6-yl]benzonitrile] | 0.0001 to 1 µM
CCOc1cc(-c2[nH]c(C3CCN(c4ncnc5[nH]c(-c6ccc(F)cc6)cc45)CC3)nc2C)ccc1C [P-3094, 4-[4-[5-(3-ethoxy-4-methyl-phenyl)-4-methyl-1H-imidazol-2-yl]-1-piperidyl]-6-(4-fluorophenyl)-7H-pyrrolo[2,3-d]pyrimidine] | 0.0001 to 1 µM
